ChEMBL document CHEMBL1131339 (J Med Chem, 1998)

Legend:
Melatonin receptor = Melatonin receptor (Gallus gallus, UniProt P49288+P51050+P49285); assay: Binding affinity towards melatonin receptor, determined in chicken brain membranes using [2-125I]melatonin; type: cell membranes, Membrane
Melanophore [1] = assay: Inhibitory concentration against melatonin-induced pigment aggregation by 50% in Xenopus laevis dermal melanophore cell line; type: functional, cell-based, frog
Melanophore [2] = assay: Effective concentration required to produce 50% of the maximal pigment aggregation in Xenopus laevis dermal melanophore cell line; type: functional, cell-based, frog
Melanophore [3] = assay: Effective concentration required to produce 50% of the maximal pigment aggregation in Xenopus laevis dermal melanophore cell line; No agonist effect detected at 100 uM; type: functional, cell-based, frog
Melanophore [4] = assay: Inhibitory concentration against melatonin-induced pigment aggregation by 50% in Xenopus laevis dermal melanophore cell line; Antagonism detected at 100 uM but IC50 not calculated; type: functional, cell-based, frog

Ki (Melatonin receptor) [nM]	IC50 (Melanophore [1])	EC50 (Melanophore [2]; Xenopus laevis, Melanophore) [nM]	EC50 (Melanophore [3])	IC50 (Melanophore [4])	EC50 (Melanophore [2]; melanophore) [nM]	SMILES
204	Not Active	862				CCC(=O)NCC1CCCc2c1c1ccccc1n2C (configuration not stated)
1.44	Not Active	0.31				CCC(=O)NCC1CCCc2c1c1cc(OC)ccc1n2C (configuration not stated)
1240	41000 nM		Not Active			Cn1c2c(c3cc(OC(F)(F)F)ccc31)C(CNC(=O)C1CCC1)CCC2 (configuration not stated)
5700	50000 nM		Not Active			Cn1c2c(c3ccccc31)C(CNC(=O)C1CCC1)CC2 (configuration not stated)
24	10000 nM	258				COc1ccc2c(c1)c1c(n2C)CCCCC1CNC(C)=O (configuration not stated)
4460	15000 nM		Not Active			Cn1c2c(c3ccccc31)C(CNC(=O)C1CC1)CCC2 (configuration not stated)
40.2	6000 nM	733				CCC(=O)NCC1CCCc2c1c1cc(OC(F)(F)F)ccc1n2C (configuration not stated)
516	Not Active	6360				CC(=O)NCC1CCc2c1c1ccccc1n2C (configuration not stated)
131.6	33000 nM	1510				Cn1c2c(c3cc(Cl)ccc31)C(CNC(=O)C1CC1)CCC2 (configuration not stated)
2.12	Not Active	5.2				CC(=O)NCC1CCCc2c1c1cc(Cl)ccc1n2C (configuration not stated)
23	14000 nM	335				CCCC(=O)NCC1CCc2c1c1cc(OC)ccc1n2C (configuration not stated)
0.378	Not Active	0.44				CCCC(=O)NCC1CCCc2c1c1cc(OC)ccc1n2C (configuration not stated)
239		2630		Antagonist		CCCC(=O)NCC1CCc2c1c1ccccc1n2C (configuration not stated)
16.1	Not Active	108				CC(=O)NCC1CCCc2c1c1cc(C)ccc1n2C (configuration not stated)
1690	44000 nM		Not Active			Cn1c2c(c3ccccc31)C(CNC(=O)C1CCC1)CCCC2 (configuration not stated)
7.66	Not Active	128				CCC(=O)NCC1CCCc2c1c1cc(C)ccc1n2C (configuration not stated)
> 10000	17000 nM		Not Active			CCCCC(=O)NCC1CCCc2c1c1ccccc1n2C (configuration not stated)
8300	42000 nM		Not Active			CCCCC(=O)NCC1CCCCc2c1c1ccccc1n2C (configuration not stated)
129			Not Active	Antagonist		CCC(=O)NCC1CCCCc2c1c1ccccc1n2C (configuration not stated)
555	Not Active	1450				Cc1ccc2c(c1)c1c(n2C)CCCC1CNC(=O)C1CCC1 (configuration not stated)
44.7	43000 nM	470				COc1ccc2c(c1)c1c(n2C)CCCCC1CNC(=O)C1CC1 (configuration not stated)
27.5	62000 nM	305				CCC(=O)NCC1CCCc2c1c1cc(CC)ccc1n2C (configuration not stated)
459	11000 nM		Not Active			COc1ccc2c(c1)c1c(n2C)CCC1CNC(=O)C1CC1 (configuration not stated)
	Not Active	7				CCC(=O)NC1CCc2[nH]c3ccc(OC)cc3c2C1 (configuration not stated)

Ki (Melatonin receptor) [nM]	IC50 (Melanophore [1])	EC50 (Melanophore [2]; Xenopus laevis, Melanophore) [nM]	EC50 (Melanophore [3])	IC50 (Melanophore [4])	EC50 (Melanophore [2]; melanophore) [nM]	SMILES
143	Not Active	195				COc1ccc2[nH]c3c(c2c1)CC(NC(=O)C1CC1)CC3 (configuration not stated)
	43000 nM		Not Active			O=C(NC1CCc2[nH]c3ccccc3c2C1)C(F)(F)F (configuration not stated)
	Not Active	25				CCCC(=O)NC1CCc2[nH]c3ccc(OC)cc3c2C1 (configuration not stated)
	39000 nM		Not Active			O=C(CBr)NC1CCc2[nH]c3ccccc3c2C1 (configuration not stated)
10.3		140		Antagonist		CCCC(=O)NCC1CCCCc2c1c1cc(OC)ccc1n2C (configuration not stated)
271	Not Active	139				COc1ccc2c(c1)c1c(n2C)CCCC1CNC(=O)C1CCC1 (configuration not stated)
> 10000	Not Active		Not Active			Cn1c2c(c3ccccc31)C(CNC(=O)C(F)(F)F)CCCC2 (configuration not stated)
272		4040		Antagonist		CCC(=O)NCC1CCc2c1c1ccccc1n2C (configuration not stated)
144.8	18000 nM		Not Active			COc1ccc2c(c1)c1c(n2C)CCCCC1CNC(=O)C1CCC1 (configuration not stated)
141.7	42000 nM	2030				CC(=O)NCC1CCCc2c1c1cc(OC(F)(F)F)ccc1n2C (configuration not stated)
82	Not Active	132				CCCCC(=O)NCC1CCCc2c1c1cc(OC)ccc1n2C (configuration not stated)
> 10000	46000 nM		Not Active			CCCCC(=O)NCC1CCc2c1c1ccccc1n2C (configuration not stated)
187.2	14000 nM		Not Active			Cn1c2c(c3cc(Cl)ccc31)C(CNC(=O)C1CCC1)CCC2 (configuration not stated)
471	39000 nM		Not Active			CCCCC(=O)NCC1CCCCc2c1c1cc(OC)ccc1n2C (configuration not stated)
5100	59000 nM		Not Active			Cn1c2c(c3ccccc31)C(CNC(=O)C1CC1)CC2 (configuration not stated)
424	54000 nM		Not Active			CC(=O)NCC1CCCCc2c1c1ccccc1n2C (configuration not stated)
215	Not Active	966				CCCC(=O)NCC1CCCc2c1c1ccccc1n2C (configuration not stated)
161	Not Active	423				COc1ccc2c(c1)c1c(n2C)CCC1CNC(C)=O (configuration not stated)
1220	56000 nM		Not Active			Cn1c2c(c3ccccc31)C(CNC(=O)C1CC1)CCCC2 (configuration not stated)
1.98	Not Active	2.1				COc1ccc2c(c1)c1c(n2C)CCCC1CNC(=O)C(F)(F)F (configuration not stated)
	11000 nM	32				COc1ccc2[nH]c3c(c2c1)CC(NC(=O)CBr)CC3 (configuration not stated)
	Not Active	12600				CCCC(=O)NC1CCc2[nH]c3ccccc3c2C1 (configuration not stated)
> 10000	32000 nM		Not Active			CCC(Br)C(=O)NC1CCc2[nH]c3ccccc3c2C1 (configuration not stated)
	Not Active	32				COc1ccc2[nH]c3c(c2c1)CC(NC(C)=O)CC3 (configuration not stated)

Ki (Melatonin receptor) [nM]	IC50 (Melanophore [1])	EC50 (Melanophore [2]; Xenopus laevis, Melanophore) [nM]	EC50 (Melanophore [3])	IC50 (Melanophore [4])	EC50 (Melanophore [2]; melanophore) [nM]	SMILES
	Not Active	3270				CCC(=O)NC1CCc2[nH]c3ccccc3c2C1 (configuration not stated)
	Not Active	32				COc1ccc2[nH]c3c(c2c1)CC(NC(=O)C(F)(F)F)CC3 (configuration not stated)
	64000 nM		Not Active			CC(=O)NC1CCc2[nH]c3ccccc3c2C1 (configuration not stated)
> 10000	35000 nM		Not Active			Cn1c2c(c3ccccc31)C(CNC(=O)C(F)(F)F)CCC2 (configuration not stated)
30	48000 nM	119				COc1ccc2c(c1)c1c(n2C)CCCC1CNC(=O)C1CC1 (configuration not stated)
84	53000 nM		Not Active			CCCC(=O)NCC1CCCCc2c1c1ccccc1n2C (configuration not stated)
> 10000	Not Active		Not Active			Cn1c2c(c3ccccc31)C(CNC(=O)C(F)(F)F)CC2 (configuration not stated)
565	3400 nM		Not Active			O=C(NCCc1c(-c2ccccc2)[nH]c2ccccc12)C1CCC1
708	6400 nM		Not Active			CC(=O)NCC1CCCc2c1c1ccccc1n2C (single isomer, unassigned; (+))
243	Not Active				789	CCC(=O)NCC1CCc2c1c1cc(OC)ccc1n2C (single isomer, unassigned; (+))
201.5	Not Active		Not Active			CCC(=O)NCC1CCCCc2c1c1cc(OC)ccc1n2C (single isomer, unassigned; (+))
48.4					14.8	COc1ccc2c(c1)c1c(n2C)CCCC1CNC(C)=O (single isomer, unassigned; (+))
40					189	CC(=O)NCC1CCCc2c1c1ccccc1n2C (single isomer, unassigned; (-))
1.7					3.4	CCC(=O)NCC1CCc2c1c1cc(OC)ccc1n2C (single isomer, unassigned; (-))
0.372					0.3	COc1ccc2c(c1)c1c(n2C)CCCC1CNC(C)=O (single isomer, unassigned; (-))
227	Not Active				599	CC(=O)NCC1CCCc2c1c1ccccc1n2C (stereo in doubt; 9a)
	Not Active				0.7	COc1ccc2c(c1)c1c(n2C)CCCC1CNC(C)=O (stereo in doubt; 9g)
16					408	CCC(=O)NCC1CCc2c1c1cc(OC)ccc1n2C (stereo in doubt; 10i)
6.5					118	CCC(=O)NCC1CCCCc2c1c1cc(OC)ccc1n2C (stereo in doubt; 11i(-))
7		91		Antagonist		CCC(=O)NCC1CCCCc2c1c1cc(OC)ccc1n2C (stereo in doubt; 11i)
1606	2100 nM		Not Active			CC(=O)NCCc1c(Cc2ccccc2)[nH]c2ccccc12 [LUZINDOLE]
	Not Active	0.23				COc1ccc2[nH]cc(CCNC(C)=O)c2c1 [MELATONIN]
